Test results reported in patent publication US10919916B2, “Boron-containing small molecules” (Bill & Melinda Gates Foundation, priority 2016, dated 2021).
≈ marks a conversion by molar mass, not a printed value. Like-named read-outs stand apart in the source and are kept apart here.

Assays:
[1] = tested on: Staphylococcus aureus, MRSA (ATCC 33591); assay: Antibacterial MIC assay (microbroth dilution, CLSI); assay type: cell-based; conditions: read-out: MIC Staphylococcus aureus, MRSA (ATCC 33591)
Excerpt: (§1) All MIC testing of bacteria followed the Clinical and Laboratory Standards Institute (CLSI) guidelines for antimicrobial testing of aerobic bacteria (Methods for Dilution Antimicrobial Susceptibility Tests for Bacteria that Grow Aerobically; Approved Standard—Tenth Edition, M07-A10; Performance Standards for Antimicrobial Susceptibility Testing; Twenty-fifth Informational Supplement, M100-S25).
(§2) Briefly, the microbroth dilution MIC method was used to quantitatively measure the in vitro antibacterial activity of a compound against a given bacterial isolate. The following bacterial strains were evaluated: Staphylococcus aureus, MRSA (ATCC 33591) and Streptococcus pneumoniae (ATCC 49619). Bacteria were grown in cation-adjusted Mueller-Hinton broth, with additions as required per species growth requirements (e.g. 3% lysed horse blood for fastidious organisms such as S. pneumoniae). A direct colony suspension in saline was prepared from colonies on an overnight agar plate to achieve a turbidity equivalent to 0.5 McFarland standard, which was subsequently diluted into the assay plate to achieve 5×10^5 CFU/mL. Assays plates were prepared by 2-fold dilution of compound across the plate and included a positive growth control.

[2] = tested on: Streptococcus pneumoniae (ATCC 49619); assay: as above; assay type: cell-based
Excerpt: as §1
as §2, with “The following bacterial strains were evaluated: Staphylococcus aureus, MRSA (ATCC 33591) and Streptococcus pneumoniae (ATCC 49619).” left out

[3] = ATCC49619, read-out: MIC Streptococcus pneumoniae (ATCC 49619)
[4] = microbroth dilution, cation-adjusted Mueller-Hinton broth, 35° C. for 16-20 hours

Structure (SMILES)	MIC [1]	MIC [2, 3]	MIC [1, 4]	MIC ([2]; ATCC49619, microbroth dilution, 3% lysed horse blood, 35° C. for 16-20 hours, read-out: MIC Streptococcus pneumoniae (ATCC 49619))
C=C[C@]1(C)C[C@@H](OC(=O)COc2ccc3c(c2C)B(O)OC3)[C@]2(C)[C@H](C)CC[C@]3(CCC(=O)[C@H]32)[C@@H](C)[C@@H]1O [Compound 9, (3aR,4R,5R,7S,8S,9R,9aS,12R)-8-hydroxy-4,7,9,12-tetramethyl-3-oxo-7-vinyldecahydro-4,9a-propanocyclopenta[8]annulen-5-yl2-((1-hydroxy-7-methyl-1,3-dihydrobenzo[c][1,2]oxaborol-6-yl)oxy)acetate]	< 0.25 µg/mL	0.5 to 2 µg/mL (≈ 0.953 to 3.81 µM)		
C=C[C@]1(C)C[C@@H](OC(=O)COc2ccc3c(c2Cl)B(O)OC3)[C@]2(C)[C@H](C)CC[C@]3(CCC(=O)[C@H]32)[C@@H](C)[C@@H]1O [Compound 6, (3aR,4R,5R,7S,8S,9R,9aS,12R)-8-hydroxy-4,7,9,12-tetramethyl-3-oxo-7-vinyldecahydro-4,9a-propanocyclopenta[8]annulen-5-yl 2-((7-chloro-1-hydroxy-1,3-dihydrobenzo[c][1,2]oxaborol-6-yl)oxy)acetate]	< 0.25 µg/mL	0.5 to 2 µg/mL (≈ 0.918 to 3.67 µM)		
C=C[C@]1(C)C[C@@H](OC(=O)CNc2ccc3c(c2F)B(O)OC3)[C@]2(C)[C@H](C)CC[C@]3(CCC(=O)[C@H]32)[C@@H](C)[C@@H]1O [Compound 54, (3aR,4R,5R,7S,8S,9R,9aS,12R)-8-hydroxy-4,7,9,12-tetramethyl-3-oxo-7-vinyldecahydro-4,9a-propanocyclopenta[8]annulen-5-yl (7-fluoro-1-hydroxy-1,3-dihydrobenzo[c][1,2]oxaborol-6-yl)glycinate]	< 0.25 µg/mL	0.5 to 2 µg/mL (≈ 0.948 to 3.79 µM)		
C=C[C@]1(C)C[C@@H](OC(=O)COc2ccc3c(c2)B(O)OC3(C)C)[C@]2(C)[C@H](C)CC[C@]3(CCC(=O)[C@H]32)[C@@H](C)[C@@H]1O [Compound 20, (3aR,4R,5R,7S,8S,9R,9aS,12R)-8-hydroxy-4,7,9,12-tetramethyl-3-oxo-7-vinyldecahydro-4,9a-propanocyclopenta[8]annulen-5-yl 2-((1-hydroxy-3,3-dimethyl-1,3-dihydrobenzo[c][1,2]oxaborol-6-yl)oxy)acetate]	< 0.25 µg/mL	0.5 to 2 µg/mL (≈ 0.929 to 3.71 µM)		
C=C[C@]1(C)C[C@@H](OC(=O)CNc2ccc3c(c2)B(O)OC3)[C@]2(C)[C@H](C)CC[C@]3(CCC(=O)[C@H]32)[C@@H](C)[C@@H]1O [Compound 45, (3aR,4R,5R,7S,8S,9R,9aS,12R)-8-hydroxy-4,7,9,12-tetramethyl-3-oxo-7-vinyldecahydro-4,9a-propanocyclopenta[8]annulen-5-yl (1-hydroxy-1,3-dihydrobenzo[c][1,2]oxaborol-6-yl)glycinate]	< 0.25 µg/mL	0.5 to 2 µg/mL (≈ 0.981 to 3.93 µM)		
C=C[C@]1(C)C[C@@H](OC(=O)COc2cc3c(cc2OC)COB3O)[C@]2(C)[C@H](C)CC[C@]3(CCC(=O)[C@H]32)[C@@H](C)[C@@H]1O [Compound 15, (3aR,4R,5R,7S,8S,9R,9aS,12R)-8-hydroxy-4,7,9,12-tetramethyl-3-oxo-7-vinyldecahydro-4,9a-propanocyclopenta[8]annulen-5-yl 2-((1-hydroxy-5-methoxy-1,3-dihydrobenzo[c][1,2]oxaborol-6-yl)oxy)acetate]			< 0.25 µg/mL	< 0.25 µg/mL
C=C[C@]1(C)C[C@@H](OC(=O)CSc2ccc3c(c2)B(O)OC3)[C@]2(C)[C@H](C)CC[C@]3(CCC(=O)[C@H]32)[C@@H](C)[C@@H]1O [Compound 61, (3aR,4R,5R,7S,8S,9R,9aS,12R)-8-hydroxy-4,7,9,12-tetramethyl-3-oxo-7-vinyldecahydro-4,9a-propanocyclopenta[8]annulen-5-yl 2-((1-hydroxy-1,3-dihydrobenzo[c][1,2]oxaborol-6-yl)thio)acetate]	< 0.25 µg/mL	< 0.25 µg/mL		
C=C[C@]1(C)C[C@@H](OC(=O)COc2cc(CN)c3c(c2)B(O)OC3)[C@]2(C)[C@H](C)CC[C@]3(C[C@H](O)C(=O)[C@H]32)[C@@H](C)[C@@H]1O [Compound 42, (2S,3aR,4R,5R,7S,8S,9R,9aS,12R)-2,8-dihydroxy-4,7,9,12-tetramethyl-3-oxo-7-vinyldecahydro-4,9a-propanocyclopenta[8]annulen-5-yl 2-((4-(aminomethyl)-1-hydroxy-1,3-dihydrobenzo[c][1,2]oxaborol-6-yl)oxy)acetate]			4 to 32 µg/mL (≈ 7.2 to 57.6 µM)	
C=C[C@]1(C)C[C@@H](OC(=O)COc2ccc3c(c2C#N)B(O)OC3)[C@]2(C)[C@H](C)CC[C@]3(CCC(=O)[C@H]32)[C@@H](C)[C@@H]1O [Compound 16, (3aR,4R,5R,7S,8S,9R,9aS,12R)-8-hydroxy-4,7,9,12-tetramethyl-3-oxo-7-vinyldecahydro-4,9a-propanocyclopenta[8]annulen-5-yl 2-((7-cyano-1-hydroxy-1,3-dihydrobenzo[c][1,2]oxaborol-6-yl)oxy)acetate]			< 0.25 µg/mL	
C=C[C@]1(C)C[C@@H](OC(=O)COc2ccc3c(c2)B(O)N(S(C)(=O)=O)N=C3)[C@]2(C)[C@H](C)CC[C@]3(CCC(=O)[C@H]32)[C@@H](C)[C@@H]1O [Compound 75, (3aR,4R,5R,7S,8S,9R,9aS,12R)-8-hydroxy-4,7,9,12-tetramethyl-3-oxo-7-vinyldecahydro-4,9a-propanocyclopenta[8]annulen-5-yl 2-((1-hydroxy-2-(methylsulfonyl)-1,2-dihydrobenzo[d][1,2,3]diazaborinin-7-yl)oxy)acetate]	< 0.25 µg/mL	0.5 to 2 µg/mL (≈ 0.833 to 3.33 µM)		
C=C[C@]1(C)C[C@@H](OC(=O)CNc2ccc3c(c2CN)B(O)OC3)[C@]2(C)[C@H](C)CC[C@]3(CCC(=O)[C@H]32)[C@@H](C)[C@@H]1O [Compound 49, (3aR,4R,5R,7S,8S,9R,9aS,12R)-8-hydroxy-4,7,9,12-tetramethyl-3-oxo-7-vinyldecahydro-4,9a-propanocyclopenta[8]annulen-5-yl (7-(aminomethyl)-1-hydroxy-1,3-dihydrobenzo[c][1,2]oxaborol-6-yl)glycinate]	0.5 to 2 µg/mL (≈ 0.929 to 3.71 µM)	0.5 to 2 µg/mL (≈ 0.929 to 3.71 µM)		
C=C[C@]1(C)C[C@@H](OC(=O)CNc2ccc3c(c2)B(O)OC3CN)[C@]2(C)[C@H](C)CC[C@]3(CCC(=O)[C@H]32)[C@@H](C)[C@@H]1O (stereo partly drawn) [Compound 52, (3aR,4R,5R,7S,8S,9R,9aS,12R)-8-hydroxy-4,7,9,12-tetramethyl-3-oxo-7-vinyldecahydro-4,9a-propanocyclopenta[8]annulen-5-yl (3-(aminomethyl)-1-hydroxy-1,3-dihydrobenzo[c][1,2]oxaborol-6-yl)glycinate]	0.5 to 2 µg/mL (≈ 0.929 to 3.71 µM)	0.5 to 2 µg/mL (≈ 0.929 to 3.71 µM)		
C=C[C@]1(C)C[C@@H](OC(=O)CNc2cc3c(cc2F)COB3O)[C@]2(C)[C@H](C)CC[C@]3(CCC(=O)[C@H]32)[C@@H](C)[C@@H]1O [Compound 46, (3aR,4R,5R,7S,8S,9R,9aS,12R)-8-hydroxy-4,7,9,12-tetramethyl-3-oxo-7-vinyldecahydro-4,9a-propanocyclopenta[8]annulen-5-yl (5-fluoro-1-hydroxy-1,3-dihydrobenzo[c][1,2]oxaborol-6-yl)glycinate]	< 0.25 µg/mL	0.5 to 2 µg/mL (≈ 0.948 to 3.79 µM)		
C=C[C@]1(C)C[C@@H](OC(=O)COc2ccc3c(c2F)B(O)ON=C3)[C@]2(C)[C@H](C)CC[C@]3(CCC(=O)[C@H]32)[C@@H](C)[C@@H]1O [Compound 97, (3aR,4R,5R,7S,8S,9R,9aS,12R)-8-hydroxy-4,7,9,12-tetramethyl-3-oxo-7-vinyldecahydro-4,9a-propanocyclopenta[8]annulen-5-yl 2-((8-fluoro-1-hydroxy-1H-benzo[d][1,2,6]oxazaborinin-7-yl)oxy)acetate]	< 0.25 µg/mL	0.5 to 2 µg/mL (≈ 0.923 to 3.69 µM)		
